Among the data in patent publication US9433621B2, “Substituted pyridine and pyrimidine derivatives and their use in treating viral infections” (Merck Sharp & Dohme Corp., priority 2010, dated 2016) are EC90 values, retold here.

Read-outs that look alike come from different tables or passages of the source.

This assay relates to HCV replicon. Put plainly: Cell-Based HCV Replicon Assay. Particulars: Hepatitis C virus. On the procedure:
Cell-Based HCV Replicon Assay
To measure cell-based anti-HCV activity of the compounds of the present invention, replicon cells were seeded at 5000 cells/well in 96-well collagen I-coated Nunc plates in the presence of the compound of the invention. Various concentrations of a compound of the invention, typically in 10 serial 2-fold dilutions, were added to the assay mixture, the starting concentration of the compound ranging from 25 μM to 1 μM. The final concentration of DMSO was 0.5%, fetal bovine serum was 10%, in the assay media. Cells were harvested on day 3 by the addition of 1× cell lysis buffer (Ambion cat #8721). The replicon RNA level was measured using real time PCR (Taqman assay). The amplicon was located in 5B. The PCR primers were: 5B.2F, ATGGACAGGCGCCCTGA; 5B.2R, […]; the probe sequence was FAM-labeled CACGCCATGCGCTGCGG. GAPDH RNA was used as endogenous control and was amplified in the same reaction as NS5B (multiplex PCR) using primers and VIC-labeled probe recommended by the manufacturer (PE Applied Biosystem). The real-time RT-PCR reactions were run on ABI PRISM® 7900HT Sequence Detection System using the following program: 48′C for 30 min, 95′C for 10 min, 40 cycles of 95′C for 15 sec, 60′C for 1 min. The ΔCT values (CT5B-CTGAPDH) were plotted against the concentration of test compound and fitted to the sigmoid dose-response model using Graph Pad PRISM® software. EC50 was defined as the concentration of inhibitor necessary to achieve ΔCT=1 over the projected baseline; EC90 the concentration necessary to achieve ΔCT=3.2 over the baseline. Alternatively, to quantitate the absolute amount of replicon RNA, a standard curve was established by including serially diluted T7 transcripts of replicon RNA in the Taqman assay. All Taqman reagents were from PE Applied Biosystems. Such an assay procedure was described in detail in e.g. Malcolm et al., Antimicrobial Agents and Chemotherapy 50: 1013-1020 (2006).
HCV Replicon assay data for compounds of the invention that were tested were obtained using the above method.
(In general: Replicon systems follow genome replication, usually without infectious particles.)

[1] abbreviates: HCV Replicon assay, EC90 range, Table VI, read-out: EC90.
The mark [2] stands for this setting: 72 h, Table V, class codes, replicon cells, day 3, real time PCR, EC90 = concentration for ΔCT=3.2 over baseline, read-out: EC90 (uM) range.
[3] abbreviates: 72 h, Table IV, replicon cells, day 3, real time PCR, EC90 = concentration for ΔCT=3.2 over baseline, read-out: EC90.
The mark [4] stands for this setting: HCV Replicon assay, EC90 given as numeric bound, Table VI, read-out: EC90.

With `Cc1nc(N[C@H](C)c2c(F)c(F)c(C)c(F)c2F)nc(N[C@@H]2C[C@H](CS(C)(=O)=O)[C@@H](O)[C@H]2O)c1-c1nc2c(C3CC3)nccc2s1` [Example 5205], the EC90 under setting [1] is below 0.5 µM.

For the molecule `Cc1nc(NC(C)(C)C)nc(N[C@@H]2C[C@H](NC(=O)NC3CC3)[C@@H](O)[C@H]2O)c1-c1nc2c(C3CC3)nccc2s1` [Example 5095], the EC90 under setting [1] is below 0.5 µM.

Consider `Cc1nc(NCCSC(C)(C)C)nc(N[C@@H]2C[C@H](C(C)(C)NS(C)(=O)=O)[C@@H](O)[C@H]2O)c1-c1nc2c(C)nccc2s1` [Example 5039], for which the EC90 under setting [1] is below 0.5 µM. On the same count and under the same terms, the same measure for `Cc1nc(NCC2CC2)nc(N[C@@H]2C[C@H](c3nccs3)[C@@H](O)[C@H]2O)c1-c1nc2c(C)nccc2s1` [Example 5295]: below 0.5 µM. `Cc1nc(N)nc(N[C@@H]2C[C@H](CO)[C@@H](O)[C@H]2O)c1-c1nc2cnc(C3CC3)cc2s1` [Example 4945]: under setting [2], the EC90 is below 0.5 µM. `Cc1nc(NCc2ccccc2F)nc(N[C@@H]2C[C@H](CO)[C@@H](O)[C@H]2O)c1-c1nc2c(C3CC3)nccc2s1` [Example 4901]: the EC90 under setting [2] is below 0.5 µM.

As for `Cc1nc(NCC(F)(F)C(F)(F)C(F)(F)F)nc(N[C@@H]2C[C@H](C(C)(C)O)[C@@H](O)[C@H]2O)c1-c1nc2c(N)nccc2s1` [Example 5210], the EC90 under setting [1] was below 0.5 µM. As to `Cc1nc(N)nc(NC2(CO)CCCC2)c1-c1nc2c(C)nccc2s1` [Example 5130], the EC90 under setting [1] was below 0.5 µM. Take `CCS(=O)(=O)C(C)(C)[C@H]1C[C@@H](Nc2nc(NCC3CC3)nc(C)c2-c2nc3c(C)nccc3s2)[C@H](O)[C@@H]1O` [Example 5057]: the EC90 under setting [1] is below 0.5 µM.

For the molecule `Cc1nc(NCC2CC2)nc(N[C@@H]2C[C@H](C(F)F)[C@@H](O)[C@H]2O)c1-c1nc2c(C)nccc2s1` [Example 3036], the EC90 under setting [3] turned out to be 0.044 µM. In the case of `Cc1nc(NCC(F)(F)F)nc(N[C@@H]2C[C@H](C(C)(C)S(C)(=O)=O)[C@@H](O)[C@H]2O)c1-c1nc2c(C)nccc2s1` [Example 5078], under setting [1], the EC90 was below 0.5 µM.

As to `Cc1nc(N[C@H](C)C2CC2)nc(N[C@@H]2C[C@H](C(C)(F)F)[C@@H](O)[C@H]2O)c1-c1nc2c(C3CC3)nccc2s1` [Example 5172], the EC90 under setting [1] was below 0.5 µM.

On to `COC1(CCNc2nc(C)c(-c3nc4c(C)nccc4s3)c(N[C@@H]3C[C@H](C(C)(C)O)[C@@H](O)[C@H]3O)n2)CCCC1` [Example 5101], for which, under setting [1], the EC90 was below 0.5 µM. In the case of `CNc1nc(C)c(-c2nc3c(C)nccc3s2)c(N[C@@H]2C[C@H](CO)[C@@H](OC)[C@H]2O)n1` [Example 4906], the EC90 under setting [2] was in the range of 0.5 to 5 µM. Turning to `Cc1nc(NC(C)(C)C)nc(N[C@@H]2C[C@H](NC(=O)NC(C)(C)C)[C@@H](O)[C@H]2O)c1-c1nc2c(C3CC3)nccc2s1` [Example 5091], the EC90 under setting [1] is below 0.5 µM. The same measure, in the same setting: the figure for `Cc1nc(NC2CC2)nc(N[C@@H]2C[C@H](C(F)F)[C@@H](O)[C@H]2O)c1-c1nc2c(C3CC3)nccc2s1` [Example 5178] is below 0.5 µM; for `Cc1nc(NCC(F)(F)C(F)(F)F)nc(N[C@@H]2C[C@H](COc3c(F)cccc3F)[C@@H](O)[C@H]2O)c1-c1nc2c(C)nccc2s1` [Example 5213] it is below 0.5 µM; for `Cc1cc(S(=O)(=O)C[C@H]2C[C@@H](Nc3nc(NC4CC4)nc(C)c3-c3nc4c(C)nccc4s3)[C@H](O)[C@@H]2O)ccc1F` [Example 5002] it is below 0.5 µM.

For `Cc1nc(N)nc(N[C@@H]2C[C@H](CS(=O)(=O)c3cc(F)cc(F)c3)[C@@H](O)[C@H]2O)c1-c1nc2c(N)nccc2s1` [Example 5211], under setting [1], the EC90 was below 0.5 µM.

For the molecule `Cc1nc(NC[C@@H](C)OC(C)C)nc(N[C@@H]2C[C@H](C(C)(C)O)[C@@H](O)[C@H]2O)c1-c1nc2c(C)nccc2s1` [Example 5259], the EC90 under setting [1] was below 0.5 µM. Regarding `CO[C@@H]1[C@@H](CO)C[C@@H](Nc2nc(NCC3CC3)nc(C)c2-c2nc3c(C)nccc3s2)[C@@H]1O` [Example 4903], under setting [2], the EC90 is below 0.5 µM. Take `Cc1nc(N[C@H](C)C2CC2)nc(N[C@@H]2C[C@H](NC(=O)N(C)C)[C@@H](O)[C@H]2O)c1-c1nc2c(C3CC3)nccc2s1` [Example 5096]: under setting [1], the EC90 was below 0.5 µM. With `COCCNc1nc(C)c(-c2nc3c(C)nccc3s2)c(N[C@@H]2C[C@H](C(C)(C)F)[C@@H](O)[C@H]2O)n1` [Example 4954], the EC90 under setting [2] was below 0.5 µM. For the molecule `Cc1nc(NCC2CC2)nc(N[C@@H]2C[C@H](C(C)(C)S(C)(=O)=O)[C@@H](O)[C@H]2O)c1-c1nc2c(C3CC3)nccc2s1` [Example 5073], the EC90 under setting [1] is below 0.5 µM.

For `COCC1(Nc2nc(C)c(-c3nc4c(C)nccc4s3)c(N[C@@H]3C[C@H](C(C)(C)O)[C@@H](O)[C@H]3O)n2)CCCCC1` [Example 5198], the EC90 under setting [4] was above 1 µM. As for `Cc1nc(NCC2CC2)nc(N[C@@H]2C[C@H](C3(O)CC3)[C@@H](O)[C@H]2O)c1-c1nc2c(C)nccc2s1` [Example 5239], under setting [1], the EC90 was below 0.5 µM. With `Cc1nc(N)nc(N[C@@H]2C[C@H](C(C)C)[C@@H](O)[C@H]2O)c1-c1nc2c(C)nccc2s1` [Example 5286], the concentration for an effect of 90% (EC90) under setting [1] was below 0.5 µM.

With `CO[C@@H]1[C@@H](CO)C[C@@H](Nc2nc(N[C@H](C)c3ccc(OC(F)(F)F)cc3)nc(C)c2-c2nc3c(C)nccc3s2)[C@@H]1O` [Example 4904], the EC90 under setting [2] was below 0.5 µM. For the molecule `Cc1nc(N[C@@H](CO)Cc2ccccc2)nc(N[C@@H]2C[C@H](C(C)(C)O)[C@@H](O)[C@H]2O)c1-c1nc2c(C)nccc2s1` [Example 5160], the EC90 under setting [1] was 0.5 to 5 µM. Consider `Cc1nc(NCC2(O)CC2)nc(N[C@H]2C=C[C@@H](CO)C2)c1-c1nc2c(C)nccc2s1` [Example 5170], for which, under setting [1], the EC90 was below 0.5 µM. Take `CO[C@@H](CNc1nc(C)c(-c2nc3c(C)nccc3s2)c(N[C@@H]2C[C@H](CO)[C@@H](O)[C@H]2O)n1)C(F)(F)F` [Example 5230]: the EC90 under setting [1] is below 0.5 µM. The same measure, in the same setting: the figure for `Cc1nc(NC2(C)CCC2)nc(N[C@@H]2C[C@H](C(C)(C)O)[C@@H](O)[C@H]2O)c1-c1nc2c(C)nccc2s1` [Example 5153] is below 0.5 µM. In the case of `CCOc1cc2cc(-c3c(C)nc(NCC4CC4)nc3N[C@@H]3C[C@H](C(C)(C)O)[C@@H](O)[C@H]3O)oc2c(C)n1` [Example 2511], the EC90 under setting [3] worked out at 0.13 µM. With `CO[C@H]1CCCC[C@@H]1Nc1nc(C)c(-c2nc3c(C4CC4)nccc3s2)c(N[C@@H]2C[C@H](CO)[C@@H](O)[C@H]2O)n1` [Example 5138], the EC90 under setting [1] is below 0.5 µM. Turning to `Cc1cccc([C@@H](C)Nc2nc(C)c(-c3nc4c(C5CC5)nccc4s3)c(N[C@@H]3C[C@H](CO)[C@@H](O)[C@H]3O)n2)c1` [Example 4933], under setting [2], the EC90 is below 0.5 µM. As to `Cc1nc(NC2(C3CC3)CC2)nc(N[C@@H]2C[C@H]([C@@H](O)C(C)C)[C@@H](O)[C@H]2O)c1-c1nc2c(C)nccc2s1` [Example 5122], the EC90 under setting [1] was below 0.5 µM. As for `Cc1nc(NC2(CS(=O)(=O)C(C)(C)C)CCCCC2)nc(N[C@@H]2C[C@H](C(C)(C)O)[C@@H](O)[C@H]2O)c1-c1nc2c(C)nccc2s1` [Example 5197], the EC90 under setting [4] was above 1 µM. In the case of `Cc1nc(N[C@H](C)c2ccc(OC(F)(F)F)cc2)nc(N[C@@H]2C[C@H](C(=O)NC(C)(C)C)[C@@H](O)[C@H]2O)c1-c1nc2c(C3CC3)nccc2s1` [Example 4947], the concentration for an effect of 90% (EC90) under setting [2] was below 0.5 µM.

Consider `CCC(O)(CC)[C@H]1C[C@@H](Nc2nc(NCCSC(C)(C)C)nc(C)c2-c2nc3c(C)nccc3s2)[C@H](O)[C@@H]1O` [Example 5248], for which the EC90 under setting [1] was below 0.5 µM. Regarding `Cc1nc(NCCSC(C)(C)C)nc(N[C@@H]2C[C@H](CC(C)(C)O)[C@@H](O)[C@H]2O)c1-c1nc2c(C)nccc2s1` [Example 5309], the EC90 under setting [1] was below 0.5 µM. For the molecule `Cc1nc(N[C@H](C)C2CCC2)nc(N[C@@H]2C[C@H](C(C)(F)F)[C@@H](O)[C@H]2O)c1-c1nc2c(C3CC3)nccc2s1` [Example 5184], the EC90 under setting [1] was below 0.5 µM. Consider `CCS[C@H](C)CNc1nc(C)c(-c2nc3c(C)nccc3s2)c(N[C@@H]2C[C@H](C(C)(C)O)[C@@H](O)[C@H]2O)n1` [Example 5255], for which, under setting [1], the EC90 is below 0.5 µM.

On to `CCNC(=O)N[C@H]1C[C@@H](Nc2nc(N[C@H](C)C3CC3)nc(C)c2-c2nc3c(C4CC4)nccc3s2)[C@H](O)[C@@H]1O` [Example 5022], for which, under setting [1], the EC90 is below 0.5 µM. `Cc1nc(NCc2cn(C)cn2)nc(N[C@@H]2C[C@H](C(C)(C)O)[C@@H](O)[C@H]2O)c1-c1nc2c(C)nccc2s1` [Example 5252]: the EC90 under setting [1] was below 0.5 µM. Turning to `COC[C@@H](C)Nc1nc(C)c(-c2nc3c(C)nccc3s2)c(N[C@@H]2C[C@H](CC(C)(C)O)[C@@H](O)[C@H]2O)n1` [Example 5310], under setting [1], the EC90 was below 0.5 µM.

In general, EC90 refers to the concentration needed for an effect of 90%.
